“Also recorded” adds a separate entry of the source.
Assays:
E. coli and K. oxytoca = assay: P-AST species-pair interaction on antibiotic resistance (logistic regression, HSAP/UP); format: cell-based, Escherichia coli; Klebsiella oxytoca; settings: E. coli and K. oxytoca together v. expected from each species alone (HSAP/UP)
Protocol: (§1) The Pooled Antibiotic Sensitivity Test (P-AST) is permitting the organisms identified to grow in the presence of antibiotics and measuring the minimum concentration of antibiotic to inhibit growth. Antibiotic susceptibility testing is performed when at least a single organism within a pool of organisms reaches a certain threshold, (e.g., at least 3,000 cells/ml, at least 5,000 cells/ml, at least 10,000 cells/ml, etc.) and can grow in the presence of the antibiotic in the assay within the time of testing. (Note: 10,000 cells/ml is equivalent to 10,000 CFU/ml.) The present invention is not limited to a 10,000 cells/mL threshold. These pools of organism(s) are inoculated into growth medium then placed onto an antibiotic laden “spec plate” that is then incubated and analyzed for growth. The breakpoints are derived from the CLSI breakpoints.
(§2) P-AST was performed by aliquoting 1 mL of patient urine specimen into a 1.7 mL microcentrifuge tube. After centrifugation, the supernatant was aspirated and discarded, leaving approximately 100 or 50 μL (minimum volume left above pellet created from centrifugation) of patient sample in the microcentrifuge tube. […] Optical density of samples was then read on a DensiCHEK plate reader. […] A spectrophotometer (plate reader) is used to measure optical density of the samples in wells of antibiotics and inoculum in order to determine if there is growth in a well. […]

[1] = system: E. coli and S. agalactiae; assay: as above; format: cell-based, Escherichia coli; Streptococcus agalactiae; settings: E. coli and S. agalactiae together v. expected from each species alone (HSAP/UP)
Protocol: as §1
(§3) P-AST was performed by aliquoting 1 mL of patient urine specimen into a 1.7 mL microcentrifuge tube. After centrifugation, the supernatant was aspirated and discarded, leaving approximately 100 or 50 μL (minimum volume left above pellet created from centrifugation) of patient sample in the microcentrifuge tube. One mL of Mueller Hinton Growth Media was then aliquoted into the patient sample in the microcentrifuge tube and the tubes were incubated at 35° C. in a non-CO2 incubator for 6 hours. Non-inoculated liquid MH-media is incubated as the negative control to confirm the media used is not contaminated. Those samples that reached a minimum threshold of 10,000 cells/mL were then diluted by aliquoting 0.5 mL of sample into a 50 mL conical tube containing Mueller Hinton Growth Media (in this example, the dilution was 1:60, e.g., 500 μL was added to 29.5 mL). 96-well plates pre-loaded with antibiotics were then inoculated with diluted samples and incubated along with control plates for 12-16 hours at 35° C. in a single layer. Optical density of samples was then read on a DensiCHEK plate reader. The DensiCHEK instrument is used to measure the concentration of turbid samples considered positive because PCR-ID result was >=10,000 cells/mL. The turbid samples were diluted/normalized to the same concentration and then added to a volume of liquid, e.g., 29.5 mL of liquid MH-media. A spectrophotometer (plate reader) is used to measure optical density of the samples in wells of antibiotics and inoculum in order to determine if there is growth in a well. The present invention is not limited to a concentration of 10,000 cells/mL.
Interactions between pairs of bacterial species were investigated using a logistic regression model to predict resistance in the presence of specific bacterial species. Bacterial species that tested positive in at least 30 samples were considered in the regression model: these 16 species were A. schaalii, A. urinae, A. omnicolens, CoNS, C. riegelii, E. faecalis, E. coli, K. oxytoca, K. pneumoniae, M. morganii, P. mirabilis, P. aeruginosa, S. aureus, S. agalactiae, U. urealyticum, VGS. Backward stepwise model selection was performed on the model with all main effects and all pairwise interactions using an enter significance level of α=0.10 and an exit significance level of α=0.05 to obtain the best fitting model. This model was used to predict resistance rates when a specific organism was present or when a specific pair of organisms were present.
Using the logistic regression model described above, the resistance rate for a pair of species was compared to the resistance rates for each species alone. […]

[2] = system: bacterial organisms present in patient urine sample; assay: Antibiotic Resistance (ABR) assay utilizing liquid growth medium; format: cell-based; settings: for Blanked (OD reading): blanked with Na-Azide well; for Mean (OD reading): raw OD600 of well; for Result (Resistant/Sensitive): threshold OD600 of 0.065
Protocol: Urine samples suitable for processing with this assay are collected, transported, and stored using BD Vacutainer tubes or other suitable leak-proof sterile containers. Urine samples may be held at room temperature for 48 hours before test results are compromised.
Antibiotic stocks are stored at 2-8° C. and protected from direct sunlight. Prepared antibiotic stock solutions were aliquoted into a 96-deep well plate (ThermoFisher Scientific) to form a 50× Antibiotic Source Plate and then diluted 1:5 to form a 10× Antibiotic Source Plate, as shown in FIG. 12 where each well is identified by antibiotic name and concentration (μg/mL; 10× final concentration). […] One well was assigned sodium azide to ensure no bacterial growth would be observed in that well.
Twenty microliters of each antibiotic solution were aliquoted into the pre-determined wells of a 96-well microplate (VIS 96/F-PS, Eppendorf) from the 10× Antibiotic Source Plate to create ABR testing plates for inoculation. These ABR testing plates were allowed to sit for up to 24 hours before use at 2-8° C. in the dark.
At the time of testing, urine samples were centrifuged to concentrate any bacterial cells and then mixed with liquid Mueller-Hinton medium and incubated for 6-16 hours at 37° C. After this initial incubation, the sample is diluted to 0.5-0.6 McF in saline and then 500 μl of that suspension was added to […] of Mueller-Hinton medium. One-hundred and eighty microliters of the diluted sample is then aliquoted to each well of the ABR microplate already containing 10× antibiotic solution, bringing all of the antibiotics to the desired final concentration. The plate is then sealed and incubated for 12-16 hours at 37° C.
After incubation, the plate was removed from the incubator and carefully uncovered and the OD600 was determined for each appropriate well by spectrophotometer. Five separate measurements were taken of each well on a plate and the mean OD600 measurement calculated for each well.
Controls are depicted in Table 10.
The raw data was then “blanked” using the measurement obtained from the Na-Azide well, as depicted in Table 14.
To determine whether bacterial organisms present in the patient samples were resistant or sensitive to a particular antibiotic at a certain concentration, blanked OD readings were compared to a threshold OD600 of 0.065 (Table 15). An OD measurement greater than or equal to this threshold was designated Resistant (R) meaning bacterial organisms present in patient sample were resistant to that particular antibiotic at that certain concentration. Any OD measurement less than this threshold was designated Sensitive (S) meaning bacterial organisms present in patient sample were sensitive to that particular antibiotic at that certain concentration.

[3] = system: bacteria detected in patient urine specimens; assay: Pooled Antibiotic Susceptibility Testing (P-AST) of urine specimens, polymicrobial v. monomicrobial (logistic regression); format: cell-based; settings: urine specimens, 95% confidence interval in parentheses
Source text: The present invention describes Pooled Antibiotic Susceptibility Testing (P-AST), which involves simultaneously growing all detected bacteria together in the presence of antibiotics and then measuring susceptibility. […] Urine specimens were obtained from patients presenting with UTI-like symptoms to 37 urology clinics. The odds of resistance were estimated for 18 antibiotics relative to increasing numbers of bacterial species in a specimen.
The following study combines data from two studies of antibiotic resistance patterns in elderly patients presenting with symptoms consistent with a UTI. […] All subjects met the following inclusion and exclusion criteria. Inclusion criteria included: symptoms of acute cystitis, complicated UTI, persistent UTI, recurrent UTI, prostatitis, pyelonephritis, interstitial cystitis (at any age), symptoms of other conditions at years of age, specimen volumes sufficient to permit urine culture and Multiplex Polymerase Chain Reaction (M-PCR) combined with Pooled Antibiotic Sensitivity Testing (P-AST), patient informed consented, documented times at which the specimens were collected and stabilized with boric acid in grey-top tubes. Exclusion criteria included prior participation in this study, antibiotics taken for any reason other than UTI at the time of enrollment, chronic (≥10 days) indwelling catheters, self-catheterization, and urinary diversion.
(§4) The Pooled Antibiotic Sensitivity Test (P-AST) is permitting the organisms identified to grow in the presence of antibiotics and measuring the minimum concentration of antibiotic to inhibit growth. Antibiotic susceptibility testing is performed when at least a single organism within a pool of organisms reaches a certain threshold, (e.g., at least 3,000 cells/ml, at least 5,000 cells/ml, at least 10,000 cells/ml, etc.) and can grow in the presence of the antibiotic in the assay within the time of testing. […] These pools of organism(s) are inoculated into growth medium then placed onto an antibiotic laden “spec plate” that is then incubated and analyzed for growth. The breakpoints are derived from the CLSI breakpoints.

[4] = system: Coagulase-negative Staphylococcus (CoNS) and E. faecalis; assay: P-AST species-pair interaction on antibiotic resistance (logistic regression, HSAP/UP); format: cell-based, Coagulase negative staphylococci; Enterococcus faecalis; settings: CoNS and E. faecalis together v. expected from each species alone (HSAP/UP)
Protocol: as §1, §2

[5] = system: Coagulase-negative Staphylococcus (CoNS) and K. pneumoniae; assay: as above; format: cell-based, Coagulase negative staphylococci; Klebsiella pneumoniae; settings: CoNS and K. pneumoniae together v. expected from each species alone (HSAP/UP)
Protocol: as §1, §3
Interactions between pairs of bacterial species were investigated using a logistic regression model to predict resistance in the presence of specific bacterial species. […]

[6] = system: Coagulase-negative Staphylococcus (CoNS) and S. agalactiae; settings: CoNS and S. agalactiae together v. expected from each species alone (HSAP/UP)
Protocol: as §4
P-AST was performed by aliquoting 1 mL of patient urine specimen into a 1.7 mL microcentrifuge tube. After centrifugation, the supernatant was aspirated and discarded, leaving approximately 100 or 50 μL (minimum volume left above pellet created from centrifugation) of patient sample in the microcentrifuge tube. One mL of Mueller Hinton Growth Media was then aliquoted into the patient sample in the microcentrifuge tube and the tubes were incubated at 35° C. in a non-CO2 incubator for 6 hours. […] Those samples that reached a minimum threshold of 10,000 cells/mL were then diluted by aliquoting 0.5 mL of sample into a 50 mL conical tube containing Mueller Hinton Growth Media (in this example, the dilution was 1:60, e.g., 500 μL was added to 29.5 mL). 96-well plates pre-loaded with antibiotics were then inoculated with diluted samples and incubated along with control plates for 12-16 hours at 35° C. in a single layer. Optical density of samples was then read on a DensiCHEK plate reader. The DensiCHEK instrument is used to measure the concentration of turbid samples considered positive because PCR-ID result was >=10,000 cells/mL. The turbid samples were diluted/normalized to the same concentration and then added to a volume of liquid, e.g., 29.5 mL of liquid MH-media. A spectrophotometer (plate reader) is used to measure optical density of the samples in wells of antibiotics and inoculum in order to determine if there is growth in a well.
Interactions between pairs of bacterial species were investigated using a logistic regression model to predict resistance in the presence of specific bacterial species. Bacterial species that tested positive in at least 30 samples were considered in the regression model: these 16 species were A. schaalii, A. urinae, A. omnicolens, CoNS, C. riegelii, E. faecalis, E. coli, K. oxytoca, K. pneumoniae, M. morganii, P. mirabilis, P. aeruginosa, S. aureus, S. agalactiae, U. urealyticum, VGS. […]

[7] = antibiotic 1 μg/mL, liquid medium
[8] = antibiotic 2 μg/mL, liquid medium
[9] = antibiotic 4 μg/mL, liquid medium
[10] = antibiotic 8 μg/mL, liquid medium
[11] = antibiotic 16 μg/mL, liquid medium
[12] = antibiotic 32 μg/mL, liquid medium

`CO/N=C(\C(=O)N[C@@H]1C(=O)N2C(C(=O)[O-])=C(C[N+]3(C)CCCC3)CS[C@H]12)c1csc(N)n1` [Cefepime, cefepime] was tested. Which “change in antibiotic resistance of the pair of organisms” value (E. coli and K. oxytoca) did it give?
Its value is “decrease in resistance; also recorded: decreased odds of resistance”.

And the “change in antibiotic resistance of the pair of organisms” value [1]?
The value was “decrease in resistance; also recorded: decreased odds of resistance”.

What about the “Blanked (OD600 minus Na-Azide well)” value [2, 7] of the same compound?
The value was 0.1959.

What about the “Mean (OD600)” value [2, 7] of the same compound?
The value was 0.2416.

And the “Blanked (OD600 minus Na-Azide well)” value [2, 8]?
Its value is 0.1970.

What about the “Mean (OD600)” value [2, 8] of the same compound?
Its value is 0.2427.

What about the “Blanked (OD600 minus Na-Azide well)” value [2, 9] of the same compound?
The value was 0.1960.

And the “Mean (OD600)” value [2, 9]?
Its value is 0.2417.

And the “Blanked (OD600 minus Na-Azide well)” value [2, 10]?
The value was 0.1947.

And the “Mean (OD600)” value [2, 10]?
The value was 0.2404.

And the “Blanked (OD600 minus Na-Azide well)” value [2, 11]?
The value was 0.1866.

And the “Mean (OD600)” value [2, 11]?
The value was 0.2323.

And the “Blanked (OD600 minus Na-Azide well)” value [2, 12]?
The value was 0.1824.

What about the “Mean (OD600)” value [2, 12] of the same compound?
The value was 0.2281.

Which results are given for gentamicin?
Odds Ratio of Resistance Polymicrobial v. Monomicrobial [3]: 1.17 (0.90, 1.51); Odds Ratio of Resistance for Each Additional Species [3]: 1.01 (0.92, 1.11); change in antibiotic resistance of the pair of organisms [4]: decrease in resistance; also recorded: decreased odds of resistance; change in antibiotic resistance of the pair of organisms [5]: decrease in resistance; also recorded: decreased odds of resistance; Blanked (OD600 minus Na-Azide well) [2, 9]: 0.0158; Mean (OD600) [2, 9]: 0.0615; Blanked (OD600 minus Na-Azide well) [2, 11]: −0.0031; Mean (OD600) [2, 11]: 0.0426; Blanked (OD reading) ([2]; antibiotic concentration 4): 0.0158; Mean (OD reading) ([2]; antibiotic concentration 4): 0.0615; Result (Resistant/Sensitive) ([2]; antibiotic concentration 4): S (Any OD measurement less than this threshold was designated Sensitive (S)); Blanked (OD reading) ([2]; antibiotic concentration 16): −0.0031; Mean (OD reading) ([2]; antibiotic concentration 16): 0.0426; Result (Resistant/Sensitive) ([2]; antibiotic concentration 16): S (Any OD measurement less than this threshold was designated Sensitive (S)); overall sensitivity of the bacteria in the sample to the antibiotic (in words) ([2]; liquid medium, Example 4 sample): sensitive; change in antibiotic resistance of the pair of organisms [6]: decrease in resistance; also recorded: decreased odds of resistance

Source: patent publication US20210301315A1, “METHODS FOR TREATING POLYMICROBIAL INFECTIONS” (priority 2017, published 2021)
